How the values were obtained:
cell cycle = experiment: Cell cycle analysis of DNA contents by flow cytometry; format: cell-based
Method: Cells were pelleted by centrifugation, and washed twice with PBS, fixed with 70% (v/v) cold ethanol (−20° C.), and stored at 4° C. for at least 24 hours. The cells were washed in PBS. Cell pellets were stained with PI/RNase staining solution. The cell suspension was incubated in the dark at room temperature for 30 min. DNA content was determined using a FACSCalibur flow cytometry (Becton Dickinson, Mount View, Calif.). Percentages of cells in Sub-G1, G1, S and G2/M stages of the cell cycle were determined with DNA histogram-fitting program (Becton Dickinson). A minimum of 10,000 events per sample was recorded.
Cells were cultured for the indicated lengths of time before being processed for analyses of DNA contents by flow cytometry. Numerical values in a panel represent gated cell population with sub-G1 DNA contents. The most significant changes were observed after 24 hours of treatment.

NFκB = experiment: LPS stimulated NFκB luciferase reporter activity in U937 cells; format: cell-based, human; conditions: 10 nM, LPS 1 μg/ml, 1, 3 or 6 hours, compared to DMSO treated control
Method: NFκB-luciferase reporter genes were used to determine the influence of Aza-C and 5-Aza-C-5′-elaidic acid on NFκB-induced luciferase activity in a human monocytic cell line U937, stably transfected with a luciferase reporter containing three NFκB-binding sites. The induction of NFκB was performed using lipopolysaccharide (LPS) at 1 μg/ml for 30 minutes prior to the addition of Aza-C or 5-Aza-C-5′-elaidic acid in the concentrations 10 nM to the medium. The cells were cultured in RPMI-1640 medium including 10% fetal bovine serum. Before stimulation with LPS the cells were transferred to medium containing only 2% fetal bovine serum. Luciferase activity was measured by imaging in an IVIS imaging System 100 (Xenogen Corp., USA) after 1, 3 or 6 hours. The LPS stimulation increased with time over the 6 hours followed in the DMSO treated control cells. […] Generally, a positive stimulation of NFκB as observed for azacytidine is not positive, and it is positive that the LPS stimulation is not further increased by 5′Aza-C-5′-elaidic acid.

[1] = test system: Hela cervix carcinoma cells; experiment: MTT cytotoxicity with or without nucleoside transport inhibitor dipyridamole; format: cell-based
Method: Dipyridamole was used as an inhibitor of the equilibrative nucleoside transporters hENT1 and hENT2. […] The cells were pre-incubated for 24 hours. Dipyridamole (10 μM) was added to the cells 30 minutes prior to the addition of the test compounds. […] Six wells were used per test concentration. The cells were incubated with test compound for 72 hours.

[2] = test system: breast carcinoma cell line MT-3; experiment: MTT cytotoxicity; format: cell-based; conditions: MT-3 breast carcinoma, 24 hours
Method: (§1) The cytotoxicity of Aza-C and 5-Aza-C-5′-elaidic acid was determined in a breast cancer cell line MT-3 and the adriablastin resistant cell line MT-3/ADR. The MT-3/ADR overexpress the MDR-1/p-glycoprotein. […] The cells were incubated for 24 hours. […] Six wells were used per test concentration. The cells were incubated with test compound for 24 hours. […] Similar activity was obtained for Aza-C and 5-Aza-C-5′-elaidic acid in the MT-3 breast carcinoma cell line, but in the MT-3/ADR resistant cell line the activity of Aza-C was lost. […] This may be of importance in the treatment of resistant cancer.

[3] = test system: MT-3/ADR resistant breast carcinoma; experiment: MTT cytotoxicity; format: cell-based; conditions: MDR1, MT-3/ADR resistant breast carcinoma (overexpress MDR-1/p-glycoprotein), 24 hours
Method: as §1

Compound: CCCCCCCC/C=C/CCCCCCCC(=O)OC[C@H]1O[C@@H](n2cnc(N)nc2=O)[C@H](O)[C@@H]1O [CP, 5-azacytidine 5′-elaidate]
- % cell G1 (cell cycle; 24 hour, dose 0.5 μM): 43.66%
- % cell G2/M (cell cycle; 24 hour, dose 0.5 μM): 11.05%
- % cell S (cell cycle; 24 hour, dose 0.5 μM): 28.15%
- % cell Sub G1 (cell cycle; 24 hour, dose 0.5 μM): 9.41%
- % cell G1 (cell cycle; 24 hour, dose 1 μM): 36.17%
- % cell G2/M (cell cycle; 24 hour, dose 1 μM): 8.82%
- % cell S (cell cycle; 24 hour, dose 1 μM): 18.98%
- % cell Sub G1 (cell cycle; 24 hour, dose 1 μM): 21.02%
- % cell G1 (cell cycle; 24 hour, dose 2 μM): 23.45%
- % cell G2/M (cell cycle; 24 hour, dose 2 μM): 2.64%
- % cell S (cell cycle; 24 hour, dose 2 μM): 9.14%
- % cell Sub G1 (cell cycle; 24 hour, dose 2 μM, listed as 5-azacytidine 5′-elaidate): 33.6%
- % cell Sub G1 (cell cycle; 24 hour, dose 2 μM, listed as cp): 33.59%
- % cell G1 (cell cycle; 48 hour, dose 0.5 μM): 34.79%
- % cell G2/M (cell cycle; 48 hour, dose 0.5 μM): 2.53%
- % cell S (cell cycle; 48 hour, dose 0.5 μM): 42.96%
- % cell Sub G1 (cell cycle; 48 hour, dose 0.5 μM): 15.14%
- % cell G1 (cell cycle; 48 hour, dose 1 μM): 28.07%
- % cell G2/M (cell cycle; 48 hour, dose 1 μM): 17.91%
- % cell S (cell cycle; 48 hour, dose 1 μM): 30.06%
- % cell Sub G1 (cell cycle; 48 hour, dose 1 μM): 14.34%
- % cell G1 (cell cycle; 48 hour, dose 2 μM): 22.51%
- % cell G2/M (cell cycle; 48 hour, dose 2 μM): 7.78%
- % cell S (cell cycle; 48 hour, dose 2 μM): 15.62%
- % cell Sub G1 (cell cycle; 48 hour, dose 2 μM): 24.34%
- % cell G1 (cell cycle; 72 hour, dose 0.5 μM): 38.72%
- % cell G2/M (cell cycle; 72 hour, dose 0.5 μM): 18.82%
- % cell S (cell cycle; 72 hour, dose 0.5 μM): 29.18%
- % cell Sub G1 (cell cycle; 72 hour, dose 0.5 μM): 10.54%
- % cell G1 (cell cycle; 72 hour, dose 1 μM): 40.67%
- % cell G2/M (cell cycle; 72 hour, dose 1 μM): 18.26%
- % cell S (cell cycle; 72 hour, dose 1 μM): 28.77%
- % cell Sub G1 (cell cycle; 72 hour, dose 1 μM): 10.75%
- LPS stimulated NFκB luciferase activity (NFκB): did not differ from the DMSO control
- cytotoxic activity increased when hENT1 and hENT2 blocked by dipyridamole ([1]; Hela, with vs without dipyridamole): 50 fold
- IC50 ([1]; Homo sapiens, HeLa, 72 h, Hela with dipyridamole (10 μM), MTT): 0.23 µM
- IC50 [2]: 17 ± 15.7 µM
- IC50 [3]: 14.8 ± 12.8 µM

Source: patent US8158605B2, “Azacytidine analogues and uses thereof” (Mount Sinai School of Medicine, priority 2007, dated 2012)
